Assay results published in BigSolDB 2.1.

Cc1cc([N+](=O)[O-])ccc1N
Details	solubility (mole fraction)
in 2-butanone, 278.15 K	0.0846
in 2-butanone, 280.65 K	0.0899
in 2-butanone, 283.15 K	0.0955
in 2-butanone, 285.65 K	0.101
in 2-butanone, 288.15 K	0.107
in 2-butanone, 290.65 K	0.114
in 2-butanone, 293.15 K	0.12
in 2-butanone, 295.65 K	0.127
in 2-butanone, 298.15 K	0.134
in 2-butanone, 300.65 K	0.141
in 2-butanone, 303.15 K	0.149
in 2-butanone, 305.65 K	0.157
in 2-butanone, 308.15 K	0.165
in 2-butanone, 310.65 K	0.174
in 2-butanone, 313.15 K	0.183
in acetone, 278.15 K	0.0764
in acetone, 280.65 K	0.0815
in acetone, 283.15 K	0.0875
in acetone, 285.65 K	0.0933
in acetone, 288.15 K	0.0996
in acetone, 290.65 K	0.106
in acetone, 293.15 K	0.113
in acetone, 295.65 K	0.12
in acetone, 298.15 K	0.127
in acetone, 300.65 K	0.135
in acetone, 303.15 K	0.142
in acetone, 305.65 K	0.151
in acetonitrile, 278.15 K	0.0308
in acetonitrile, 280.65 K	0.0335
in acetonitrile, 283.15 K	0.0362
in acetonitrile, 285.65 K	0.039
in acetonitrile, 288.15 K	0.0423
in acetonitrile, 290.65 K	0.0456
in acetonitrile, 293.15 K	0.0491
in acetonitrile, 295.65 K	0.0528
in acetonitrile, 298.15 K	0.0566
in acetonitrile, 300.65 K	0.0607
in acetonitrile, 303.15 K	0.0651
in acetonitrile, 305.65 K	0.0699
in acetonitrile, 308.15 K	0.0747
in acetonitrile, 310.65 K	0.0797
in acetonitrile, 313.15 K	0.0852
in cyclohexane, 283.15 K	2.5e-05
in cyclohexane, 285.65 K	2.87e-05
in cyclohexane, 288.15 K	3.37e-05
in cyclohexane, 290.65 K	3.87e-05
in cyclohexane, 293.15 K	4.47e-05
in cyclohexane, 295.65 K	5.27e-05
in cyclohexane, 298.15 K	6.13e-05
in cyclohexane, 300.65 K	6.99e-05
in cyclohexane, 303.15 K	8.08e-05
in cyclohexane, 305.65 K	9.26e-05
in cyclohexane, 308.15 K	0.000108
in cyclohexane, 310.65 K	0.000122
in cyclohexane, 313.15 K	0.000139
in ethanol, 278.15 K	0.00732
in ethanol, 280.65 K	0.00807
in ethanol, 283.15 K	0.00887
in ethanol, 285.65 K	0.00974
in ethanol, 288.15 K	0.0107
in ethanol, 290.65 K	0.0117
in ethanol, 293.15 K	0.0127
in ethanol, 295.65 K	0.0139
in ethanol, 298.15 K	0.0152
in ethanol, 300.65 K	0.0165
in ethanol, 303.15 K	0.018
in ethanol, 305.65 K	0.0197
in ethanol, 308.15 K	0.0213
in ethanol, 310.65 K	0.0231
in ethanol, 313.15 K	0.025
in ethyl acetate, 278.15 K	0.062
in ethyl acetate, 280.65 K	0.0669
in ethyl acetate, 283.15 K	0.0722
in ethyl acetate, 285.65 K	0.0776
in ethyl acetate, 288.15 K	0.0837
in ethyl acetate, 290.65 K	0.0897
in ethyl acetate, 293.15 K	0.096
in ethyl acetate, 295.65 K	0.103
in ethyl acetate, 298.15 K	0.11
in ethyl acetate, 300.65 K	0.117
in ethyl acetate, 303.15 K	0.125
in ethyl acetate, 305.65 K	0.133
in ethyl acetate, 308.15 K	0.142
in ethyl acetate, 310.65 K	0.151
in ethyl acetate, 313.15 K	0.16
in isopropanol, 278.15 K	0.00459
in isopropanol, 280.65 K	0.00511
in isopropanol, 283.15 K	0.00572
in isopropanol, 285.65 K	0.00635
in isopropanol, 288.15 K	0.00707
in isopropanol, 290.65 K	0.00781
in isopropanol, 293.15 K	0.00865
in isopropanol, 295.65 K	0.00961
in isopropanol, 298.15 K	0.0106
in isopropanol, 300.65 K	0.0118
in isopropanol, 303.15 K	0.0129
in isopropanol, 305.65 K	0.0142
in isopropanol, 308.15 K	0.0157
in isopropanol, 310.65 K	0.0172
in isopropanol, 313.15 K	0.0189
in methanol, 278.15 K	0.00834
in methanol, 280.65 K	0.00913
in methanol, 283.15 K	0.0101
in methanol, 285.65 K	0.0109
in methanol, 288.15 K	0.0119
in methanol, 290.65 K	0.0131
in methanol, 293.15 K	0.0142
in methanol, 295.65 K	0.0155
in methanol, 298.15 K	0.0168
in methanol, 300.65 K	0.018
in methanol, 303.15 K	0.0198
in methanol, 305.65 K	0.0213
in methanol, 308.15 K	0.0231
in methanol, 310.65 K	0.0249
in methanol, 313.15 K	0.027
in n-butanol, 278.15 K	0.00492
in n-butanol, 280.65 K	0.00552
in n-butanol, 283.15 K	0.00618
in n-butanol, 285.65 K	0.00691
in n-butanol, 288.15 K	0.00778
in n-butanol, 290.65 K	0.00858
in n-butanol, 293.15 K	0.00951
in n-butanol, 295.65 K	0.0106
in n-butanol, 298.15 K	0.0118
in n-butanol, 300.65 K	0.0131
in n-butanol, 303.15 K	0.0145
in n-butanol, 305.65 K	0.016
in n-butanol, 308.15 K	0.0177
in n-butanol, 310.65 K	0.0196
in n-butanol, 313.15 K	0.0216
in n-propanol, 278.15 K	0.00631
in n-propanol, 280.65 K	0.00701
in n-propanol, 283.15 K	0.00776
in n-propanol, 285.65 K	0.00853
in n-propanol, 288.15 K	0.00939
in n-propanol, 290.65 K	0.0103
in n-propanol, 293.15 K	0.0113
in n-propanol, 295.65 K	0.0124
in n-propanol, 298.15 K	0.0136
in n-propanol, 300.65 K	0.0148
in n-propanol, 303.15 K	0.0162
in n-propanol, 305.65 K	0.0176
in n-propanol, 308.15 K	0.0192
in n-propanol, 310.65 K	0.0209
in n-propanol, 313.15 K	0.0227
in toluene, 278.15 K	0.00159
in toluene, 280.65 K	0.00178
in toluene, 283.15 K	0.00204
in toluene, 285.65 K	0.0023
in toluene, 288.15 K	0.00258
in toluene, 290.65 K	0.00285
in toluene, 293.15 K	0.00317
in toluene, 295.65 K	0.00353
in toluene, 298.15 K	0.00391
in toluene, 300.65 K	0.00439
in toluene, 303.15 K	0.0048
in toluene, 305.65 K	0.00527
in toluene, 308.15 K	0.00584
in toluene, 310.65 K	0.00645
in toluene, 313.15 K	0.00714
